Source: patent publication US20140220135A1, “PERMEATION ENHANCED ACTIVE-CARRYING NANOPARTICLES” (Midatech Limited, priority 2013, published 2014)
Entries after “also recorded” stand apart in the source; their conditions may differ.

Experiments:
[1] = Glucose clearance in somatostatin-infused minipigs after glucose bolus; format: in vivo; conditions: transbuccal strips of NP-insulin, μg DoD/strip, period of 40 to 60 minutes, FIG. 8
Method: Minipigs were infused with somatostatin in order to suppress endogenous insulin secretion. They were then given a bolus injection of 0.33 gm/kg glucose. After thirty minutes the test item was given and the first order rate constant for glucose clearance (k) was calculated for the period of 40 to 60 minutes.
Test items included: 1. Strips containing 4 U insulin on nanoparticle applied transbuccal; 2. Strips containing 4 U insulin on nanoparticle dodecyl-β-D-maltoside applied transbuccal; 3. Subcutaneous (s.c.) nanoparticle-insulin (NP-insulin); 4. S.C. commercial Humalog® insulin.

[2] = test system: insulin-carrying gold nanoparticles ("GNPI"); experiment: Insulin release from insulin-carrying gold nanoparticles incubated with permeation enhancer, BCA protein assay of supernatant; format: physicochemical
Method: […] Samples were mixed and left at RT for 1 h, they were then spun for 2 min at 18000 g and 10 μl of each supernatant was measured by BCA protein assay to determine insulin release, a blank and a positive control in which no TDM was added and the sample was not spun were also included.
The sample tubes were vortexed and left at RT for a further 95 h (for a total of 96 hours) and re-assayed as above to see if there was any further indication of insulin release.
In a follow on experiment lysalbinic acid (LAA) was also tested as an alternative potential permeation enhancer, the same protocol was used as for TDM above.

## CCCCCCCCCCCCO[C@@H]1O[C@H](CO)[C@@H](O[C@H]2O[C@H](CO)[C@@H](O)[C@H](O)[C@H]2O)[C@H](O)[C@H]1O [DoD, dodecyl-β-D-maltoside]
[1]
  first order rate constant for glucose clearance (k) against dosage of DoD: apparent dose-dependence; also recorded: clear dose-dependence

## CCCCCCCCCCCCCCO[C@@H]1O[C@H](CO)[C@@H](O[C@H]2O[C@H](CO)[C@@H](O)[C@H](O)[C@H]2O)[C@H](O)[C@H]1O [TDM, tetradecyl-D-maltoside]
[2]; 1 h at RT in water, 2.5-67.5 μg TDM in 0.5 ml, FIG. 2
  insulin release by TDM over 0 TDM control: less than 5%
[2]; 96 h at RT in water, FIG. 3
  further insulin release after a total of 96 hours: no further release
[2]; 96 hours of incubation in solution
  loss of bound active from active-carrying nanoparticle: without significant loss of bound active
[2]; insulin level of 75 U/ml, FIG. 5 and FIG. 6
  percentage of insulin released against percentage of permeation enhancer: lack of effect
[2]; range of concentrations, in water, short or medium term
  effect on insulin release from GNPI (overall conclusion): no gross effect
